Our source for the IC50 values is US11981661B2, “Heterocyclic compounds” (Hoffmann-La Roche Inc., priority 2020, dated 2024).

The experiment deals with T1, MAGL (Homo sapiens, UniProt Q99685).
T1 sequence (Q99685 1-303): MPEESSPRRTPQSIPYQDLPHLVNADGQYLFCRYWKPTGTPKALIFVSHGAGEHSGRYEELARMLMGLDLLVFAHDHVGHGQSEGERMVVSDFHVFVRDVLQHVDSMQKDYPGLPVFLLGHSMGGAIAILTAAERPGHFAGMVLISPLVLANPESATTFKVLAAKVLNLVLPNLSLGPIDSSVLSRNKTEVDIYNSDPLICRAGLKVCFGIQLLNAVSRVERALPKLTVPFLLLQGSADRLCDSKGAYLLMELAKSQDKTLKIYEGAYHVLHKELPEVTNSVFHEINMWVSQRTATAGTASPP
The experiment in a line: 2-AG assay (MAGL inhibitory activity, hydrolysis of 2-arachidonoylglycerol followed by mass spectrometry). The following applies: 50 pM MAGL, 8 μM 2-arachidonoylglycerol, 15 min preincubation, 30 min incubation at RT, concentration range 12.5 μM to 0.8 pM. It counts as biochemical. As to the method: Compounds were profiled for MAGL inhibitory activity by determining the enzymatic activity by following the hydrolysis of the natural substrate 2-arachidonoylglycerol resulting in arachidonic acid, which can be followed by mass spectrometry. This assay is hereinafter abbreviated “2-AG assay”.
The 2-AG assay was carried out in 384 well assay plates (PP, Greiner Cat #784201) in a total volume of 20 μL. Compound dilutions were made in 100% DMSO (VWR Chemicals 23500.297) in a polypropylene plate in 3-fold dilution steps to give a final concentration range in the assay from 12.5 μM to 0.8 pM. 0.25 μL compound dilutions (100% DMSO) were added to 9 μL MAGL in assay buffer (50 mM TRIS (GIBCO, 15567-027), 1 mM EDTA (Fluka, 03690-100 mL), 0.01% (v/v) Tween. After shaking, the plate was incubated for 15 min at RT. To start the reaction, 10 μL 2-arachidonoylglycerol in assay buffer was added. The final concentrations in the assay was 50 pM MAGL and 8 μM 2-arachidonoylglyerol. After shaking and 30 min incubation at RT, the reaction was quenched by the addition of 40 μL of ACN containing 4 μM of d8-arachidonic acid. The amount of arachidonic acid was traced by an online SPE system (Agilent Rapidfire) coupled to a triple quadrupole mass spectrometer (Agilent 6460). A C18 SPE cartridge (G9205A) was used in an ACN/water liquid setup. The mass spectrometer was operated in negative electrospray mode following the mass transitions 303.1→259.1 for arachidonic acid and 311.1→267.0 for d8-arachidonic acid. The activity of the compounds was calculated based on the ratio of intensities [arachidonic acid/d8-arachidonic acid].

The compound `O=C(CCCc1cnn[nH]1)N1CC(OCc2ccc(C(F)(F)F)cc2F)C1` [Example 39, 1-[3-[[2-Fluoro-4-(trifluoromethyl)phenyl]methoxy]azetidin-1-yl]-4-(1H-triazol-5-yl)butan-1-one] had an IC50 of 0.058 µM.
The same measure for `O=C(CCCc1cnn[nH]1)N1CC(c2ccc(C3(C(F)(F)F)CC3)cc2)C1` [Example 40, 4-(1H-Triazol-5-yl)-1-[3-[4-[1-(trifluoro-methyl)cyclopropyl]phenyl]azetidin-1-yl]butan-1-one]: 0.021 µM; for `CC(C)(Oc1ccc(C2CN(C(=O)CCCc3cnn[nH]3)C2)cc1)C(F)(F)F` [Example 41, 4-(1H-Triazol-5-yl)-1-[3-[4-(2,2,2-trifluoro-1,1-dimethyl-ethoxy)phenyl]azetidin-1-yl]butan-1-one]: 0.023 µM; for `O=C(CCCc1cnn[nH]1)N1CC(c2ccc(Oc3ccc(OC(F)(F)F)cc3)nc2)C1` [Example 42, 4-(1H-Triazol-5-yl)-1-[3-[6-[4-(trifluoro-methoxy)phenoxy]-3-pyridyl]azetidin-1-yl]butan-1-one]: 0.218 µM.
With `O=C(CCCc1cnn[nH]1)N1CC2(CC(Oc3cncc(C(F)(F)F)n3)C2)C1` [Example 43, 4-(1H-Triazol-5-yl)-1-[6-[6-(trifluoromethyl)pyrazin-2-yl]oxy-2-azaspiro[3.3]heptan-2-yl]butan-1-one] the figure was 6.95 µM; with `O=C(CCCc1cnn[nH]1)N1CC(C#Cc2cccc(Cl)c2)C1` [Example 44, 1-[3-[2-(3-Chlorophenyl)ethynyl]azetidin-1-yl]-4-(1H-triazol-5-yl)butan-1-one], 0.061 µM; with `O=C(CCCc1cnn[nH]1)N1CC(c2ccc(N3CC(OCC(F)(F)F)C3)cc2)C1` [Example 46, 4-(1H-Triazol-5-yl)-1-[3-[4-[3-(2,2,2-trifluoroethoxy)azetidin-1-yl]phenyl]azetidin-1-yl]butan-1-one], 0.323 µM.
The same measure for `O=C(CCc1ccn[nH]1)N1CC(OCc2ccc(C(F)(F)F)cc2F)C1` [Example 47, 1-[3-[[2-Fluoro-4-(trifluoromethyl)phenyl]methoxy]azetidin-1-yl]-3-(1H-pyrazol-5-yl)propan-1-one]: 0.43 µM; for `O=C(CCc1cccc(=O)[nH]1)N1CC(OCc2ccc(C(F)(F)F)cc2F)C1` [Example 48, 6-[3-[3-[[2-Fluoro-4-(trifluoromethyl)phenyl]methoxy]azetidin-1-yl]-3-oxo-propyl]-1H-pyridin-2-one]: 0.598 µM; for `O=C1CCCC(CCC(=O)N2CC(OCc3ccc(C(F)(F)F)cc3F)C2)N1` (stereo not drawn) [Example 49, 6-[3-[3-[[2-Fluoro-4-(trifluoromethyl)phenyl]methoxy]azetidin-1-yl]-3-oxo-propyl]piperidin-2-one]: 0.605 µM.
`O=C1CC[C@@H](COC(=O)N2CC(OCc3ccc(C(F)(F)F)cc3F)C2)N1` [Example 52, [(2S)-5-Oxopyrrolidin-2-yl]methyl 3-[[2-fluoro-4-(trifluoromethyl)phenyl]methoxy]azetidine-1-carboxylate] yielded an IC50 of 0.167 µM.
With `O=C1CC[C@H](COC(=O)N2CC(OCc3ccc(C(F)(F)F)cc3F)C2)N1` [Example 53, [(2R)-5-Oxopyrrolidin-2-yl]methyl 3-[[2-fluoro-4-(trifluoromethyl)phenyl]methoxy] azetidine-1-carboxylate] the figure was 0.907 µM; with `O=C1N[C@H](COC(=O)N2CC(OCc3ccc(C(F)(F)F)cc3F)C2)CO1` [Example 54, [(4S)-2-Oxooxazolidin-4-yl]methyl 3-[[2-fluoro-4-(trifluoromethyl)phenyl]methoxy] azetidine-1-carboxylate], 0.036 µM; with `O=C1N[C@@H](COC(=O)N2CC(OCc3ccc(C(F)(F)F)cc3F)C2)CO1` [Example 55, [(4R)-2-Oxooxazolidin-4-yl]methyl 3-[[2-fluoro-4-(trifluoromethyl)phenyl]methoxy] azetidine-1-carboxylate], 0.033 µM.
As for `O=C1N[C@H](COC(=O)N2CC(c3ccc(C4(C(F)(F)F)CC4)cc3)C2)CO1` [Example 56, [(4S)-2-Oxooxazolidin-4-yl]methyl 3-[4-[1-(trifluoromethyl)cyclopropyl]phenyl] azetidine-1-carboxylate], the IC50 turned out to be 0.005 µM.
The same measure for `O=C1N[C@H](COC(=O)N2CC3(CC(Cc4ccc(F)cc4F)C3)C2)CO1` [Example 57, [(4S)-2-Oxooxazolidin-4-yl]methyl 6-[(2,4-difluorophenyl)methyl]-2-azaspiro[3.3]heptane-2-carboxylate]: 0.002 µM; for `O=C1N[C@H](COC(=O)N2CC(c3ccc(Oc4ccc(F)cc4)cc3)C2)CO1` [Example 58, [(4S)-2-Oxooxazolidin-4-yl]methyl 3-[4-(4-fluorophenoxy)phenyl]azetidine-1-carboxylate]: 0.004 µM.
The same measure for `O=C1N[C@@H](COC(=O)N2CC3(CC(Cc4ccc(F)cc4F)C3)C2)CO1` [Example 59, [(4R)-2-Oxooxazolidin-4-yl]methyl 6-[(2,4-difluorophenyl)methyl]-2-azaspiro[3.3]heptane-2-carboxylate]: 0.002 µM; for `O=C1N[C@H](COC(=O)N2CC(c3ccc(Oc4ccccc4Cl)nc3)C2)CO1` [Example 60, [(4S)-2-Oxooxazolidin-4-yl]methyl 3-[6-(2-chlorophenoxy)-3-pyridyl]azetidine-1-carboxylate]: 0.033 µM; for `O=C1N[C@H](COC(=O)N2CC(C#Cc3ccccc3C(F)F)C2)CO1` [Example 61, [(4S)-2-Oxooxazolidin-4-yl]methyl 3-[2-[2-(difluoromethyl)phenyl]ethynyl] azetidine-1-carboxylate]: 0.013 µM.
The same measure for `O=C1N[C@H](COC(=O)N2CC(c3ccc(N4CCC(C(F)(F)F)C4)nc3)C2)CO1` (stereo partly drawn) [Example 62, [(4S)-2-Oxooxazolidin-4-yl]methyl 3-[6-[3-(trifluoromethyl)pyrrolidin-1-yl]-3-pyridyl]azetidine-1-carboxylate]: 0.026 µM.
`O=C(OCCc1cnn[nH]1)N1CC(OCc2ccc(C(F)(F)F)cc2F)C1` [Example 63, 2-(1H-Triazol-5-yl)ethyl 3-[[2-fluoro-4-(trifluoro-methyl)phenyl]methoxy]azetidine-1-carboxylate] returned an IC50 of 0.019 µM.
The same measure for `O=C(NCCc1cnn[nH]1)N1CC(OCc2ccc(C(F)(F)F)cc2F)C1` [Example 64, 3-[[2-Fluoro-4-(trifluoromethyl)phenyl]methoxy]-N-[2-(1H-triazol-5-yl)ethyl]azetidine-1-carboxamide]: 0.093 µM.
Take `CN(CCc1cnn[nH]1)C(=O)N1CC(c2ccc(C3(C(F)(F)F)CC3)cc2)C1` [Example 65, N-Methyl-N-[2-(1H-triazol-5-yl)ethyl]-3-[4-[1-(trifluoromethyl)cyclopropyl]phenyl] azetidine-1-carboxamide]: the IC50 amounted to 0.002 µM.
With `CN(CCc1cnn[nH]1)C(=O)N1CC(OCc2ccc(C(F)(F)F)cc2F)C1` [Example 66, 3-[[2-Fluoro-4-(trifluoromethyl)phenyl]methoxy]-N-methyl-N-[2-(1H-triazol-5-yl)ethyl]azetidine-1-carboxamide] the figure was 0.013 µM; with `CN(CCc1cnn[nH]1)C(=O)N1CC(c2ccc(-c3ccc(S(C)(=O)=O)cc3Cl)cc2)C1` [Example 67, 3-[4-(2-Chloro-4-methylsulfonyl-phenyl)phenyl]-N-methyl-N-[2-(1H-triazol-5-yl)ethyl]azetidine-1-carboxamide], 0.027 µM; with `CC(CCc1cnn[nH]1)C(=O)N1CC(c2ccc(C3(C(F)(F)F)CC3)cc2)C1` (stereo not drawn) [Example 68, 2-Methyl-4-(1H-triazol-5-yl)-1-[3-[4-[1-(trifluoromethyl)cyclopropyl]phenyl]azetidin-1-yl]butan-1-one], 0.059 µM.
The same measure for `O=C(CC(O)Cc1cnn[nH]1)N1CC(c2ccc(C3(C(F)(F)F)CC3)cc2)C1` (stereo not drawn) [Example 69, 3-Hydroxy-4-(1H-triazol-5-yl)-1-[3-[4-[1-(trifluoromethyl)cyclopropyl]phenyl]azetidin-1-yl]butan-1-one]: 0.122 µM.
The same measure for `O=C(C(F)CCc1cnn[nH]1)N1CC(c2ccc(C3(C(F)(F)F)CC3)cc2)C1` (stereo not drawn) [Example 70, 2-Fluoro-4-(1H-triazol-5-yl)-1-[3-[4-[1-(trifluoromethyl)cyclopropyl]phenyl]azetidin-1-yl]butan-1-one]: 0.062 µM.
Compound `CN(c1ccccc1)c1ccc(C2CN(C(=O)CC[C@@H]3COC(=O)N3)C2)cc1` [Example 71, (4R)-4-[3-[3-[4-(N-Methylanilino)phenyl]azetidin-1-yl]-3-oxo-propyl]oxazolidin-2-one] came in with an IC50 of 0.001 µM.

One may read the IC50 as the concentration at which inhibition is half-maximal. High values mean weaker potency in that assay, low ones greater potency in that assay.
